Assays:
MDA-MB-231 cells = assay: MDA-MB-231 proliferation assay; type: cell-based; conditions: Homo sapiens, MDA-MB-231, 72 h, YO-PRO-1 Iodide readout
Procedure, shortened: (§1)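 Cells seeded at 750 per well, treated next day for 72 h at 37 °C with 0.5% final DMSO. Cell number read by YO-PRO-1 fluorescence after lysis, normalized to DMSO (100%) and time-zero cells (0%). GI50 from 4-parameter logistic fit, maximum constrained to 100%.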

CAL-51 cells = assay: CAL-51 proliferation assay; type: cell-based; conditions: Homo sapiens, CAL-51, 72 h, YO-PRO-1 Iodide readout
Procedure, shortened: as §1

[1] = Body weight changes in SW480 xenograft study; type: in vivo, NOD/SCID mice; conditions: day-17; oral BID*BIW, 45 mg/kg days 1-10, 50 mg/kg days 11-22
Description: (§2) NOD/SCID mice of circa 23 g of weight were inoculated with 1×10^7 SW480 human colorectal cancer cells in 50% Matrigel™ subcutaneously in a flank. A pair match was performed when tumors reached an average volume of 100-150 mm^3 to distribute animals into treatment group and vehicle control (n=8/group). Tumor volumes (expressed in mm^3) were measured twice weekly using a caliper on days 1, 4, 8, 11, 15, 18, 22 and 23 of the treatment period. (A) The average TVol (±standard error of mean (SEM)) of each treatment group are shown. […] (B) Changes in BW in percentage (expressed in g, ±SEM) on days 1, 4, 8, 11, 15, 18, 22 and 23 of the treatment period. (C) Changes in vehicle- and Example 13-treated TVol expressed in mm^3. TVol ratio of Example 13-treated vs vehicle control (T/C) is indicated.
Female 8-9 weeks of age NOD/SCID mice of about 23 g of weight were used for the study (Jiangsu GemPharmatech Co., Ltd). Mice were inoculated subcutaneously in the flank region with 1×10^7 SW480 cells in PBS mixed with Matrigel™ (1:1) in a final injection volume of 0.2 mL/mouse. Once tumors reached an average size of 100-150 mm^3, a pair match was carried out to distribute mice to the different treatment groups. […]
(§3) Tumor volumes (expressed in mm^3) were measured in two dimensions using a caliper on days 1, 4, 8, 11, 15, 18, 22 and 23 of the treatment period. […]

[2] = tested on: SW480 human colorectal cancer cells; assay: SW480 colorectal cancer mouse xenograft model; type: in vivo, NOD/SCID mice
Description: as §2
The efficacy of Example 13 was assessed in a mouse xenograft model. To this end, the SW480 colorectal cancer xenograft model was used, in which the tumor cells were injected subcutaneously into the flanks of immune-deficient NOD/SCID mice (lack functional/mature T and B cells, functional immature macrophages and residual NK cell function). […]
as §3

## COCCN(C)c1c(O[C@H]2CC[C@H](N)CC2)ccc2c1CC(C)(C)c1c(N)ncnc1-2 [Example 13, 8-(trans-4-aminocyclohexoxy)-N7-(2-methoxyethyl)-N7,5,5-trimethyl-6H-benzo[h]quinazoline-4,7-diamine]
MDA-MB-231 cells
  GI50: 100 to 2000 nM
CAL-51 cells
  GI50: < 100 nM
[1]
  maximal body weight loss: 5%
[2]; oral 45 mg/kg BID*BIW, treatment period
  tumor volumes during the treatment period compared with vehicle-treated: consistently smaller
[2]; study endpoint day 23, oral BID*BIW, 45 mg/kg days 1-10, 50 mg/kg days 11-22, p=0.06
  tumor volumes as % of the volume of the vehicle-treated group (T/C): 61%

From patent US20260159486A1, “BENZO[H]QUINAZOLINE-4-AMINE DERIVATIVES FOR THE TREATMENT OF CANCER” (Redona Therapeutics, Inc., priority 2021, published 2026)
